Experimental data reported in patent US20210137945A1, “METHOD FOR TREATING A CANCER ASSOCIATED WITH THE ACTIVATION OF GALECTIN-1” (TRINEO BIOTECHNOLOGY CO. LTD, priority 2019, published 2021).
Each block holds one compound with its values, some of them ahead of it.

Legend:
Format in all cases: cell-based
myeloma ARH-77 cells = test: MTT assay of myeloma ARH-77 cells treated with chemotherapeutic drugs alone or combined; conditions: for IC50: ARH-77 cells, chemotherapeutic agent alone (control)
Experimental: (§1) Ovarian cancer cell ES-2 and myeloma cell line ARH-77 were used in the present disclosure. Cells was cultured and maintained in Dulbecco's modified Eagle media (DMEM) supplemented with 10% fetal bovine serum (FBS), 100 IU/ml penicillin, […] streptomycin, 2 mM glutamine, non-essential amino acids and sodium pyruvate in 5% CO2 at 37° C. Cells were grown and maintained in Petri dishes (each was 10 cm in diameter) until they reached 80% confluence, and then were subject to cell passages. Briefly, cells were first washed with phosphate buffer solution (PBS, 3 ml) once, then treated with 0.05% Trypsin/0.025% EDTA solution (1 mL) for 5 min so that the attached cells become suspended. The suspended cells were harvested and 2 mL fresh culture media were added therein to neutralize any remaining activity of trypsin. Cell density was adjusted by adding appropriate amounts of culture medium to the cell suspension, which was then used to seed the culture plates. The plates were then returned to the incubator, and cultured in accordance with the steps described above.
Cells were seeded in 96-well plates with a density of 3,000 cells/well and cultured in accordance with the procedures described above. On the day when cell activity analysis was to be conducted, cells were first treated with various concentrations of the triterpenoids of the present disclosure, imatinib or gefitinib for at least 48 hrs, before subjecting them to MTT assay.
(§2) 50 μL of the MTT stock solution (5 mg MTT dissolved in 1 ml of sterile PBS) was added to each well, and 50 μL of the MTT stock solution was added to 500 μL of medium alone and used as a negative control. Each sample was incubated at 37° C. for 4 hours. Aliquots (450 μl) from each sample were taken to a new well of 48-well culture plate, adding […], DMSO, mixing thoroughly using the pipette and reacted at 37° C. for 20 min and absorbance was measured at 570 nm.
Results are summarized in Tables 1 to 3, and FIGS. 3 and 4.
If no significance existed between the expected and observed values, the effect is termed“additivity (p>0.05)”. […] The expected value was determined by multiplying the survival rate of each drug in specific dose. The obtained value and value of each survival rate were measured by MMT assay (FIG. 3 and FIG. 4).

[1] = tested on: ovarian cancer cells (i.e., ES-2 cells); test: MTT assay of cell activity, ES-2 cells; conditions: treated at least 48 hrs
Experimental: as §1, with “The suspended cells were harvested and 2 mL fresh culture media were added therein to neutralize any remaining activity of trypsin. Cell density was adjusted by adding appropriate amounts of culture medium to the cell suspension, which was then used to seed the culture plates. The plates were then returned to the incubator, and cultured in accordance with the steps described above.” left out
as §2, with “Each sample was incubated at 37° C. for 4 hours.” left out
The effects of the TN-GL-01 composition of example 1.1 on ovarian cancer cells (i.e., ES-2 cells) were evaluated by MTT assay in accordance with procedures described in the “Material and Methods” section.

galectin-1 = test: Western blot analysis of galectin-1 expression in ES-2 cells; conditions: western blot (FIG. 2)
Experimental: Samples were respectively subjected to SDS-PAGE, transferred to PVDF membranes. These blots were blocked with 5% nonfat milk powder in TBS-0.1% Tween-20 for 30 minutes, followed by incubation with primary antibodies at 4° C. overnight and then horseradish peroxidase-conjugated secondary antibodies (Amersham Biosciences, Piscataway). Imaging of bands was performed using Pierce ECL Western Blotting Substrate (Thermo Fisher Scientific) and ImageQuant LAS-4000 (GE Healthcare).
In this example, the effects of TN-GL-01 composition on the expression of galectin-1 in ERK (extracellular-signal-regulated kinase) pathway was investigated via western blot analysis. […] Thus, it was concluded that the present TN-GL-01 composition exerted its function through suppression of galectin-1.

IC50 (myeloma ARH-77 cells): 415 nM
Structure (SMILES): COc1cc([C@@H]2c3cc4c(cc3[C@@H](O[C@@H]3O[C@@H]5CO[C@@H](C)O[C@H]5[C@H](O)[C@H]3O)[C@H]3COC(=O)[C@H]23)OCO4)cc(OC)c1O [Etoposide, etoposide]

Structure (SMILES): N.N.[Cl][Pt][Cl] [Cisplatin, cisplatin]
Cell survival rate of the single drug (myeloma ARH-77 cells; ARH-77, Table 2, Cisplatin 3 μM alone): 0.65
Cell survival rate of the single drug (myeloma ARH-77 cells; ARH-77, Table 3, Cisplatin 3 μM alone): 0.69

IC50 (myeloma ARH-77 cells; Homo sapiens): 99 nM
Structure (SMILES): COc1cccc2c1C(=O)c1c(O)c3c(c(O)c1C2=O)C[C@@](O)(C(=O)CO)C[C@@H]3O[C@H]1C[C@H](N)[C@H](O)[C@H](C)O1 [Doxorubicin, doxorubicin]
Cell survival rate of the single drug (myeloma ARH-77 cells; ARH-77, Table 2, Doxorubicin 100 nM alone): 0.58
Cell survival rate of the single drug (myeloma ARH-77 cells; ARH-77, Table 3, Doxorubicin 250 nM alone): 0.66
Cell survival rate of the single drug (myeloma ARH-77 cells; ARH-77, Table 3, Doxorubicin 500 nM alone): 0.66

Structure (SMILES): C/C(=C/CC[C@@H](C)[C@H]1CC[C@@]2(C)C3=CC[C@H]4C(C)(C)C(=O)CC[C@]4(C)C3=CC[C@]12C)C(=O)O [GAS, ganoderic acid S]
50% inhibition of ES-2 cells (IC50) [1]: 58.3 µg/mL
expression of galectin-1 (galectin-1): effective in suppressing the expression of galectin-1

Structure (SMILES): CC(=O)O[C@H]1C(=O)[C@@]2(C)[C@H]([C@H](OC(=O)c3ccccc3)[C@]3(O)C[C@H](OC(=O)[C@H](O)[C@@H](NC(=O)c4ccccc4)c4ccccc4)C(C)=C1C3(C)C)[C@]1(OC(C)=O)CO[C@@H]1C[C@@H]2O [Paclitaxel, paclitaxel]
Cell survival rate of the single drug (myeloma ARH-77 cells; ARH-77, Table 2, Paclitaxel 62.5 nM alone): 0.68
Cell survival rate of the single drug (myeloma ARH-77 cells; ARH-77, Table 2, Paclitaxel 125 nM alone): 0.50
Cell survival rate of the single drug (myeloma ARH-77 cells; ARH-77, Table 3, Paclitaxel 40 μM alone): 0.65

Structure (SMILES): CC(=O)O[C@@H](C/C=C(\C)C(=O)O)[C@@H](C)[C@H]1C[C@H](OC(C)=O)[C@@]2(C)C3=CC[C@H]4C(C)(C)[C@H](OC(C)=O)CC[C@]4(C)C3=CC[C@]12C [GAT, ganoderic acid T]
50% inhibition of ES-2 cells (IC50) [1]: 24.5 µg/mL
expression of galectin-1 (galectin-1): effective in suppressing the expression of galectin-1
